# Experimental data taken from PMC9304199, “A small molecule CFTR potentiator restores ATP‐dependent channel gating to the cystic fibrosis mutant G551D‐CFTR” (British Journal of Pharmacology, 2022).
# Columns and labels:
# F508del‐CFTR = F508del‐CFTR (Homo sapiens, UniProt P13569, DEL508-508); assay: F508del‐CFTR plasma membrane stability in FRT epithelia (Ussing chamber Isc after cycloheximide); format: cell-based; parameters: expressed in transfected cells; BHK cells from MD Amaral; settings: for acute potentiation of forskolin-stimulated CFTR-mediated Isc: DMSO-treated low temperature-rescued F508del‐CFTR FRT epithelia, t = 0 h, forskolin 10 μM, ivacaftor 1 μM, then CP‐628006 10 μM
# Method: To evaluate the effects of CP‐628006 on the plasma membrane stability of F508del‐CFTR, we used a modification of the method described by Meng et al. ([2017]). After 48‐h incubation at 27°C to rescue the plasma membrane expression of F508del‐CFTR, FRT epithelia were treated with cycloheximide (50 μg·ml^−1) and DMSO or test small molecules, 15 min prior to t = 0 h. At t = 0, 2, 4, and 6 h after these treatments, F508del‐CFTR expressing FRT epithelia were mounted in Ussing chambers (Warner Instrument Corp., Dual Channel Chamber; Harvard Apparatus Ltd., Edenbridge, UK) and Isc responses recorded.
# CFTR‐mediated Isc was recorded using a large Cl^− concentration gradient without permeabilizing the basolateral membrane. The solution bathing the basolateral membrane contained (mM): 140 NaCl, 5 KCl, 0.36 K2HPO4, 0.44 KH2PO4, 1.3 CaCl2, 0.5 MgCl2, 10 HEPES, and 4.2 NaHCO3, adjusted to pH 7.2 with Tris ([Cl^−], 149 mM). The solution bathing the apical membrane was identical to that of the basolateral solution with the exception that (mM): 133.3 Na gluconate + 2.5 NaCl and 5 K gluconate replaced 140 NaCl and 5 KCl, respectively, ([Cl^−], 14.8 mM). To compensate for the calcium buffering capacity of gluconate, we used 5.7‐mM Ca^2+ in the apical solution. All solutions were maintained at 37°C and bubbled continuously with 5% CO2.
# After cancelling voltage offsets, we clamped transepithelial voltage (referenced to the basolateral solution) at 0 mV and recorded Isc continuously using an epithelial voltage‐clamp amplifier (Warner Instrument Corp., model EC‐825; Harvard Apparatus Ltd.), digitising data as described previously (Li et al., [2004]). The resistance of the filter and solutions, in the absence of cells, was subtracted from all measurements.
# wild‐type CFTR = molecular target: T1, wild‐type CFTR (Homo sapiens, UniProt P13569); assay: Single-channel recording in excised inside-out membrane patches, wild-type CFTR; format: biochemical; settings: ATP 0.3 mM; for maximum Po (Po max) / EC50: PKA 75 nM, ~23°C; for EC50: read-out: EC50 for potentiation of Po
# T1 construct: expressed in transfected cells
# Method: For CFTR studies using automated electrophysiology and single-channel recording, we used baby hamster kidney (BHK) cells (RRID:CVCL_1915) and human embryonic kidney (HEK) 293 cells (RRID:CVCL_0045) stably expressing wild-type human CFTR and the CFTR variants F508del- and […] et al., [2002]; Xu et al., [2014]). […] HEK cells expressing CFTR variants were generated using the Flp-InTM system as described above for F508del- and G551D-CFTR-expressing FRT cells. They were cultured in Dulbecco's modified Eagle's medium (glucose, 1.5 g·L^-1; sodium pyruvate, 110 mg·L^-1) supplemented with 10% FBS (PAA Laboratories), GlutaMAXTM and hygromycin-B (150 μg·ml^-1; InvitrogenTM, Thermo Fisher Scientific) at 37°C in a humidified atmosphere with 5% CO2. Prior to study, F508del-CFTR expressed in HEK cells was trafficked to the plasma membrane by low temperature incubation (27°C for 24-72 h). The single-channel behaviour of human CFTR in excised membrane patches from different mammalian cell lines heterologously expressing CFTR is equivalent (wild-type CFTR, Chen et al., [2009]; F508del-CFTR, Bose et al., [2019]; and G551D-CFTR, J Liu, Y Wang, Z Cai, and DN Sheppard, unpublished observations). CFTR Cl^- channels were recorded in excised inside-out membrane patches using an Axopatch 200B patch-clamp amplifier and pCLAMP software (version 10.3) (RRID:SCR_011323) (both from Molecular Devices, San Jose, CA, USA) (Sheppard & Robinson, [1997]). […] Within 2 min after membrane patch excision, we added the catalytic subunit of protein kinase A (PKA; 75 nM) and ATP (1 mM) to the intracellular solution to activate CFTR Cl^- channels. To minimise channel rundown, we added PKA and millimolar concentrations of ATP to all intracellular solutions and clamped voltage at -50 mV. […] We reduced the ATP concentration when testing CFTR potentiators on wild-type CFTR to observe their effects more clearly. […] Instead, specific interventions with CFTR potentiators were compared with the pre-intervention control period made with the same concentration of ATP and PKA, but without test compounds. […] F508del-CFTR, n ≤ 4; G551D-CFTR, n ≤ 5). To determine channel number, we used the maximum number of simultaneous channel openings observed during an experiment (Cai et al., [2006]). To minimise errors, we used experimental conditions that robustly potentiate channel activity and verified that recordings were of sufficient length to ascertain the correct number of channels ([…] et al., [1994]). […] Despite our precautions, we cannot exclude the possibility of unobserved G551D-CFTR Cl^- channels in excised membrane patches causing Po values for G551D-CFTR to be […]. Therefore, Po values for G551D-CFTR are expressed as apparent Po (Po(app)) values. Single-channel currents were directly acquired to a computer hard disc after filtering at a corner frequency (f c) of 500 Hz with an eight-pole Bessel filter (model LHBF-48×; npi electronic GmbH, Tamm, Germany) and digitising at a sampling rate of 5 kHz using a Digidata 1440A interface (Molecular Devices) and pCLAMP software. […] The mean interburst interval (TIBI) was calculated using the equation (Cai et al., [2006]): (1) Po=Tb/TMBD+TIBI, where T b = (mean burst duration) × (open probability within a burst). Mean burst duration (T MBD) and open probability within a burst (Po[burst]) were determined directly from experimental data using pCLAMP software. […]
# F508del‐CFTR, sequence (P13569 with tags, fused parts or gaps DEL508-508): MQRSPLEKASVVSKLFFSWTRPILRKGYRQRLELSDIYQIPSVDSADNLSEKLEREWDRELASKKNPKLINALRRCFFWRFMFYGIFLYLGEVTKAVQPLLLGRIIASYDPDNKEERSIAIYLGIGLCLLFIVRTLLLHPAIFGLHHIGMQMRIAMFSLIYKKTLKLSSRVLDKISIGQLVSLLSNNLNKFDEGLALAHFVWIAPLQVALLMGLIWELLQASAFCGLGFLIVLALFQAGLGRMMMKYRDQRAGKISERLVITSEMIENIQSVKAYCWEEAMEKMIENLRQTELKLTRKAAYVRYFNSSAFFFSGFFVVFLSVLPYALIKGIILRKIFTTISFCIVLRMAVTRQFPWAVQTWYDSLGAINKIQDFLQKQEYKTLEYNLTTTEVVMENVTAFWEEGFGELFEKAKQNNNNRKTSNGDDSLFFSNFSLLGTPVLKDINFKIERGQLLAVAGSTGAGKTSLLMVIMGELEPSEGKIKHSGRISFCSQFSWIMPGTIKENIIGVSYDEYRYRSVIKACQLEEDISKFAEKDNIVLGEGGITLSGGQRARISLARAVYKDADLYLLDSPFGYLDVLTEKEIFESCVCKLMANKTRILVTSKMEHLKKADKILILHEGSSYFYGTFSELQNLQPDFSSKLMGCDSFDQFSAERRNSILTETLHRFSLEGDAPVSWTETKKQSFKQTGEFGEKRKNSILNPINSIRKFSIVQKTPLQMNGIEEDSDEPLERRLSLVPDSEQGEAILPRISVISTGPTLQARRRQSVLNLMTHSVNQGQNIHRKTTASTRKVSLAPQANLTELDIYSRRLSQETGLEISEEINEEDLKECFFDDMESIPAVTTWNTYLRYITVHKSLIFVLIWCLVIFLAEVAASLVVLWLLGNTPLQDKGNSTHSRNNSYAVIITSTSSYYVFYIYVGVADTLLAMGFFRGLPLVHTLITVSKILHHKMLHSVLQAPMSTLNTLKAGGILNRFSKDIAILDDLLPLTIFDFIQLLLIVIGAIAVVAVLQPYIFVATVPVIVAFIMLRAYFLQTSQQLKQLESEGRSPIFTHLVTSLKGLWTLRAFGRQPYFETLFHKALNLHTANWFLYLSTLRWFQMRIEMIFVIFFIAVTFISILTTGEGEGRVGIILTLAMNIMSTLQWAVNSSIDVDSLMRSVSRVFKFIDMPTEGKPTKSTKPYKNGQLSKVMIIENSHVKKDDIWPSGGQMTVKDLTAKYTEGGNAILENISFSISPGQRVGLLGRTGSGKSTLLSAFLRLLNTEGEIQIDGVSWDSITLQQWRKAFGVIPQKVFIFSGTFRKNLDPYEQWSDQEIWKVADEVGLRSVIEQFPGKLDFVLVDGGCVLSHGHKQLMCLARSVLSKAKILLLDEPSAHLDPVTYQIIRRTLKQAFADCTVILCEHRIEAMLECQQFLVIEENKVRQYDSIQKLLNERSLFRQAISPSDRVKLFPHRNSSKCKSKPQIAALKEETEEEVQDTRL
# T1 sequence (P13569 whole entry): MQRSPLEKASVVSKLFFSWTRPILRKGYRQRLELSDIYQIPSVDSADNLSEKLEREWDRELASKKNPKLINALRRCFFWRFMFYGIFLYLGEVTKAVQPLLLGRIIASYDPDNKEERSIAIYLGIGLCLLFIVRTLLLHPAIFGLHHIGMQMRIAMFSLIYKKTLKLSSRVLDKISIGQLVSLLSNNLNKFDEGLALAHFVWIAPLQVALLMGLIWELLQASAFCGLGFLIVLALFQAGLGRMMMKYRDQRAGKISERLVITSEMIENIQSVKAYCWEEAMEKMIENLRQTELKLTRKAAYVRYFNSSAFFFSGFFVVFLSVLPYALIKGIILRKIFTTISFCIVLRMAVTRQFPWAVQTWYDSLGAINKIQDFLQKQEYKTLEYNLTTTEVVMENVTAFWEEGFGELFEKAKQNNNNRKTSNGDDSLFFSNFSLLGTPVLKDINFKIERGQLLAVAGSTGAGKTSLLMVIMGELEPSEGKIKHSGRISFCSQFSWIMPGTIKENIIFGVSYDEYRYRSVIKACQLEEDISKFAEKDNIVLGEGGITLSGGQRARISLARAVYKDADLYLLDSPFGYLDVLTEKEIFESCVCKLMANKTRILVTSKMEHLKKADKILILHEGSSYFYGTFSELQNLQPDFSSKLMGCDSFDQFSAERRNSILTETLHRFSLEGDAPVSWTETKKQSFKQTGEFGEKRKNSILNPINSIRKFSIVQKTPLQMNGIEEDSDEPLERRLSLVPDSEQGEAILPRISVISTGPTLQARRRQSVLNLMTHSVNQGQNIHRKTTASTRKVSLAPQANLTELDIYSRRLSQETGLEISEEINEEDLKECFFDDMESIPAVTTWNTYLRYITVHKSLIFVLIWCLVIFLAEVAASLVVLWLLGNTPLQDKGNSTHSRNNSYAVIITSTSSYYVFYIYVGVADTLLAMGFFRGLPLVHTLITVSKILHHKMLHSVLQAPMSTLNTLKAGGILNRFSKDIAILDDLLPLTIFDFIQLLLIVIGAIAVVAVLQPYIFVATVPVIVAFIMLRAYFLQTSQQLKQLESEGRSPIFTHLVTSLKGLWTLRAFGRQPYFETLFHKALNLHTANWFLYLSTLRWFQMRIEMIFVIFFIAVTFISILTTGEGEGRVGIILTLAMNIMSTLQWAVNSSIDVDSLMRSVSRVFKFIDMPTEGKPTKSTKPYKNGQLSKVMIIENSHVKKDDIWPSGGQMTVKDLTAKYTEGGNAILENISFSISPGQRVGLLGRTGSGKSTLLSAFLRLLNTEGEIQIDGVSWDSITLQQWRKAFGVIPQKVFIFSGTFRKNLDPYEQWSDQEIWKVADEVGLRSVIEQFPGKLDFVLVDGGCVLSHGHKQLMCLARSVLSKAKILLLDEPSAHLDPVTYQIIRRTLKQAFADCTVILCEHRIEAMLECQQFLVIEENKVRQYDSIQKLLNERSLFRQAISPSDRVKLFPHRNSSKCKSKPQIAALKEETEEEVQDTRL
Compound,acute potentiation of forskolin-stimulated CFTR-mediated Isc (F508del‐CFTR),"decline of CFTR-mediated Isc over 6 h (F508del‐CFTR; low temperature-rescued F508del‐CFTR FRT epithelia treated with cycloheximide 50 μg·ml−1 and compound 10 μM, 37°C)",maximum Po (Po max) (wild‐type CFTR),EC50 (wild‐type CFTR) [nM],greater potency than CP‐628006 (wild‐type CFTR) [fold]
"Cc1ncccc1CNC(=O)c1ccc2c(c1)CC[C@H]1C[C@](O)(CCC(F)(F)F)CC[C@]21Cc1ccccc1 (racemic) [CP‐628006, rac‐(4bR,7R,8aS)‐4b‐benzyl‐7‐hydroxy‐N‐((2‐methylpyridin‐3‐yl)methyl)‐7‐(3,3,3‐trifluoropropyl)‐4b,5,6,7,8,8a,9,10‐octahydrophenanthrene‐2‐carboxamide]",had little additional effect,slower,0.77,24,–
"CC(C)(C)c1cc(C(C)(C)C)c(NC(=O)c2c[nH]c3ccccc3c2=O)cc1O [ivacaftor, reference compound]",potentiated two‐fold,–,0.71,0.21,100
